Measured values from US7902225B2, “Mycobacterial inhibitors” (Janssen Pharmaceutica NV, priority 2005, dated 2011).
Where a name gives a salt, the structure may show the parent alone.

Columns and labels:
M. Smegmatis ATCC607 = experiment: In-vitro anti-bacterial activity against strain M. smegmatis ATCC607 (growth inhibition, Alamar Blue fluorescence); format: cell-based; settings: 48 hours at 37° C.; for IC50: Mycolicibacterium smegmatis, read-out: M. smegmatis (pIC50) (converted)
Description: D.2. In-vitro Method for Testing Compounds for Anti-bacterial Activity Against Strain M. Smegmatis ATCC607. Flat-bottom, sterile 96well plastic microtiter plates were filled with 180 μl of sterile deionized water, supplemented with 0.25% BSA. Subsequently, stock solutions (7.8× final test concentration) of compounds were added in 45 μl volumes to a series of duplicate wells in column 2 so as to allow evaluation of their effects on bacterial growth. Serial five-fold dilutions (45 μl in 180 μl) were made directly in the microtiter plates from column 2 to 11 using a customised robot system (Zymark Corp., Hopkinton, Mass.). Pipette tips were changed after every 3 dilutions to minimize pipetting errors with high hydrophobic compounds. Untreated control samples with (column 1) and without (column 12) inoculum were included in each microtiter plate. Approximately 250 CFU per well of bacteria inoculum, in a volume of 100 μl in 2.8× Mueller-Hinton broth medium, was added to the rows […]. The same volume of broth medium without inoculum was added to column 12 in row A to H. The cultures were incubated at 37° C. for 48 hours in a humidified 5% CO2 atmosphere (incubator with open air valve and continuous ventilation). At the end of incubation, two days after inoculation, the bacterial growth was quantitated fluorometrically. Therefore Alamar Blue (10×) was added to all wells in a volume of 20 μl and plates were incubated for another 2 hours at […] The fluorescence was read in a computer-controlled fluorometer (Cytofluor, Biosearch) at an excitation wavelength of 530 nm and an emission wavelength of 590 nm (gain 30). The % growth inhibition achieved by the compounds was calculated according to standard methods. The pIC50 was defined as the 50% inhibitory concentration for bacterial growth.

[1] = test system: Mycobacterium tuberculosis (strain H37RV); experiment: In-vitro testing of compounds against M. tuberculosis (growth inhibition, Resazurin fluorescence); format: cell-based; settings: bacterial growth inhibition, 7 days at 37° C.; for IC50: Mycobacterium tuberculosis, 168 h, read-out: M. tuberculosis (pIC50) (converted)

Compound	IC50 (M. Smegmatis ATCC607) [µM]	melting point [°C]	further results
CN(C)CCC(O)(c1ccccc1)c1cc(Br)cc2cc(Cc3ccccc3)c(OCCN3CCCCC3)nc12 (stereo not drawn) [Compound 11]	3.16		IC50 [1]: 3.16 µM
COc1nc2c(C(O)(CCN(C)C)c3ccccc3)cc(Br)cc2cc1Cc1ccccc1 (stereo not drawn) [Compound 3]	1.26	66	
CN(C)CCC(O)(c1cccc2ccccc12)c1cc(Br)cc2cc(-c3ccccc3)c(=O)[nH]c12 (stereo not drawn)		190	
COc1nc2c(C(O)(CCN(C)C)c3ccccc3)cc(-c3cccnc3)cc2cc1Cc1ccccc1 (stereo not drawn) [Compound 14]	7.94	180	
CN(C)CCC(O)(c1cc(F)cc(F)c1)c1cccc2nc(N(C)C)c(-c3ccccc3)cc12 (stereo not drawn) (as salt: salt) [Compound 10]		136	
CN(C)CCC(O)(c1cc(F)cc(F)c1)c1ccc2nc(-c3cccnc3)cc(-c3ccccc3)c2c1 (stereo not drawn) (as salt: salt) [Compound 8]		151	
CN(C)CCOc1nc2c(C(O)(CCN(C)C)c3ccccc3)cc(Br)cc2cc1Cc1ccccc1 (stereo not drawn) [Compound 75]	6.31		IC50 [1]: 5.01 µM
CN(C)CCC(O)(c1ccccc1)c1cc(Br)cc2cc(Cc3ccccc3)c(N3CCCC3)nc12 (stereo not drawn) [Compound 80]			M. smegmatis (pIC50) (M. Smegmatis ATCC607): 6.1; M. tuberculosis (pIC50) [1]: 5.05
CN(C)CCC(O)(c1ccccc1)c1cc(Br)cc2cc(Cc3ccccc3)c(N3CCOCC3)nc12 (stereo not drawn) [Compound 7]	1.58	70	
CN(C)CCC(O)(c1ccccc1)c1cc(Br)cc2cc(Cc3ccccc3)c(N3CCN(Cc4ccccc4)CC3)nc12 (stereo not drawn) [Compound 79]			M. smegmatis (pIC50) (M. Smegmatis ATCC607): 6.2; M. tuberculosis (pIC50) [1]: 4.6
COc1nc2c(C(O)(CCN(C)C)c3cc(F)cc(F)c3)cc(-c3cccnc3)cc2cc1-c1ccccc1 (stereo not drawn) (as salt: salt) [Compound 13]		156	
CN(C)CCC(O)(Cc1c(Cc2ccccc2)c(-c2ccco2)nc2ccccc12)c1cc(F)cc(F)c1 (stereo not drawn) [Compound 5]	0.398	130	
CN(C)CCC(O)(Cc1c(Cc2ccccc2)c(-c2cccnc2)nc2ccccc12)c1cc(F)cc(F)c1 (stereo not drawn) [Compound 9]	6.31	164	
CN(C)CCC(O)(c1cc(F)cc(F)c1)c1cccc2nc(N(C)C)c(-c3ccccc3)cc12 (stereo not drawn) [Compound 10]	2		
CN(C)CCC(O)(Cc1c(Cc2ccccc2)c(-c2ccsc2)nc2ccccc12)c1cc(F)cc(F)c1 (stereo not drawn) [Compound 40]	7.94		
CN(C)CCC(O)(c1cccc2ccccc12)c1cc(Br)cc2cc(Cc3ccccc3)c(N3CCN(C(=O)c4ccco4)CC3)nc12 (stereo not drawn) [Compound 54]	1.26		
CN(C)CCC(O)(c1ccco1)c1cc(Br)cc2cc(-c3ccccc3)c(-n3cncn3)nc12 (stereo not drawn) [Compound 68]	31.6		
COCCCNc1nc2c(C(O)(CCN(C)C)c3ccccc3)cc(Br)cc2cc1Cc1ccccc1 (stereo not drawn) [Compound 90]			M. smegmatis (pIC50) (M. Smegmatis ATCC607): 5.5
COc1nc2c(C(O)(CCN(C)C)c3cc(F)cc(F)c3)cc(-c3cccnc3)cc2cc1-c1ccccc1 (stereo not drawn) [Compound 13]	0.398		
CN(C)CCC(O)(c1ccccc1)c1cc(Br)cc2cc(Cc3ccccc3)c(N(C)CCc3ccccc3)nc12 (stereo not drawn) [Compound 83]	1.58		
CN(C)CCC(O)(c1ccccc1)c1cccc2nc(N3CCN(C)CC3)c(-c3ccccc3)cc12 (stereo not drawn) [Compound 37]	79.4		
CN(C)CCC(O)(c1ccccc1)c1cc(-c2cccnc2)cc2cc(-c3ccccc3)c(-c3cccnc3)nc12 (stereo not drawn) [Compound 76]	1.58		
COc1nc2cccc(C(O)(CCN(C)C)c3ccc4ccccc4c3)c2cc1-c1ccccc1 (stereo not drawn) [Compound 19]	7.94		
CN(C)CCC(O)(c1ccccc1)c1cc(Br)cc2cc(Cc3ccccc3)c(N3CCN(c4ncccn4)CC3)nc12 (stereo not drawn) [Compound 89]	2.51		
